# Results: ChEMBL document CHEMBL4665624, “Synthesis of 5-(4-(1H-phenanthro[9,10-d]imidazol-2-yl)benzylidene)thiazolidine-2,4-dione as promising DNA and serum albumin-binding agents and evaluation of antitumor activity” (Eur J Med Chem, 2019)
# Assays:
# [1] = test system: EKVX; assay: Antitumor activity against human EKVX cells assessed as cell growth inhibition at 10 uM incubated for 48 hrs by sulforhodamine B assay; assay type: functional; details: read-out: GI
# [2] = test system: UO-31; assay: Antitumor activity against human UO-31 cells assessed as cell growth inhibition at 10 uM incubated for 48 hrs by sulforhodamine B assay; assay type: functional; details: read-out: GI
# [3] = test system: SW-620; assay: Antitumor activity against human SW620 cells assessed as cell growth inhibition at 10 uM incubated for 48 hrs by sulforhodamine B assay; details: SW-620, 48 h, read-out: GI
# [4] = test system: HCC 2998; assay: Antitumor activity against human HCC2998 cells assessed as cell growth inhibition at 10 uM incubated for 48 hrs by sulforhodamine B assay; assay type: functional; details: read-out: GI
# [5] = test system: NCI-H522; assay: Antitumor activity against human NCI-H522 cells assessed as cell growth inhibition at 10 uM incubated for 48 hrs by sulforhodamine B assay; assay type: functional; details: read-out: GI
# [6] = test system: SN12C; assay: Antitumor activity against human SN12C cells assessed as cell growth inhibition at 10 uM incubated for 48 hrs by sulforhodamine B assay; assay type: functional; details: read-out: GI
# [7] = test system: RXF 393; assay: Antitumor activity against human RXF 393 cells assessed as cell growth inhibition at 10 uM incubated for 48 hrs by sulforhodamine B assay; assay type: functional; details: read-out: GI
# [8] = test system: HL-60(TB); assay: Antitumor activity against human HL-60(TB) cells assessed as cell growth inhibition at 10 uM incubated for 48 hrs by sulforhodamine B assay; assay type: functional; details: read-out: GI
# [9] = test system: RPMI-8226; assay: Antitumor activity against human RPMI8226 cells assessed as cell growth inhibition at 10 uM incubated for 48 hrs by sulforhodamine B assay; assay type: functional; details: read-out: GI
# [10] = test system: HCT-15; assay: Antitumor activity against human HCT15 cells assessed as cell growth inhibition at 10 uM incubated for 48 hrs by sulforhodamine B assay; assay type: functional; details: read-out: GI
# [11] = test system: SNB-19; assay: Antitumor activity against human SNB-19 cells assessed as cell growth inhibition at 10 uM incubated for 48 hrs by sulforhodamine B assay; assay type: functional; details: read-out: GI
# [12] = test system: NCI-H226; assay: Antitumor activity against human NCI-H226 assessed as cell growth inhibition at 10 uM incubated for 48 hrs by sulforhodamine B assay; assay type: functional; details: read-out: GI
# [13] = test system: Hs-578T; assay: Antitumor activity against human HS 578T cells assessed as cell growth inhibition at 10 uM incubated for 48 hrs by sulforhodamine B assay; assay type: functional; details: read-out: GI
# [14] = test system: CCRF-CEM; assay: Antitumor activity against human CCRF-CEM cells assessed as cell growth inhibition at 10 uM incubated for 48 hrs by sulforhodamine B assay; assay type: functional; details: read-out: GI
# [15] = test system: OVCAR-4; assay: Antitumor activity against human OVCAR-4 cells assessed as cell growth inhibition at 10 uM incubated for 48 hrs by sulforhodamine B assay; assay type: functional; details: read-out: GI
# [16] = test system: SF-268; assay: Antitumor activity against human SF268 cells assessed as cell growth inhibition at 10 uM incubated for 48 hrs by sulforhodamine B assay; assay type: functional; details: read-out: GI
# [17] = test system: NCI/ADR-RES; assay: Antitumor activity against human NCI/ADR-RES cells assessed as cell growth inhibition at 10 uM incubated for 48 hrs by sulforhodamine B assay; assay type: functional; details: read-out: GI
# [18] = test system: COLO 205; assay: Antitumor activity against human COLO205 cells assessed as cell growth inhibition at 10 uM incubated for 48 hrs by sulforhodamine B assay; assay type: functional; details: read-out: GI
# [19] = test system: PC-3; assay: Antitumor activity against human PC-3 cells assessed as cell growth inhibition at 10 uM incubated for 48 hrs by sulforhodamine B assay; assay type: functional; details: read-out: GI
# [20] = test system: OVCAR-8; assay: Antitumor activity against human OVCAR-8 cells assessed as cell growth inhibition at 10 uM incubated for 48 hrs by sulforhodamine B assay; assay type: functional; details: read-out: GI
# [21] = test system: KM12; assay: Antitumor activity against human KM12 cells assessed as cell growth inhibition at 10 uM incubated for 48 hrs by sulforhodamine B assay; assay type: functional; details: read-out: GI
# [22] = test system: HOP-92; assay: Antitumor activity against human HOP92 cells assessed as cell growth inhibition at 10 uM incubated for 48 hrs by sulforhodamine B assay; assay type: functional; details: read-out: GI
# [23] = test system: SF-295; assay: Antitumor activity against human SF295 cells assessed as cell growth inhibition at 10 uM incubated for 48 hrs by sulforhodamine B assay; assay type: functional; details: read-out: GI
# [24] = test system: Malme-3M; assay: Antitumor activity against human MALME-3M cells assessed as cell growth inhibition at 10 uM incubated for 48 hrs by sulforhodamine B assay; assay type: functional; details: read-out: GI
# [25] = test system: HT-29; assay: Antitumor activity against human HT-29 cells assessed as cell growth inhibition at 10 uM incubated for 48 hrs by sulforhodamine B assay; assay type: functional; details: read-out: GI
# [26] = test system: MDA-MB-231; assay: Antitumor activity against human MDA-MB-231/ATCC cells assessed as cell growth inhibition at 10 uM incubated for 48 hrs by sulforhodamine B assay; assay type: functional; details: read-out: GI
# [27] = test system: NCI-H23; assay: Antitumor activity against human NCI-H23 cells assessed as cell growth inhibition at 10 uM incubated for 48 hrs by sulforhodamine B assay; assay type: functional; details: read-out: GI
# [28] = test system: SK-OV-3; assay: Antitumor activity against human SK-OV-3 cells assessed as cell growth inhibition at 10 uM incubated for 48 hrs by sulforhodamine B assay; assay type: functional; details: read-out: GI
# [29] = test system: UACC-62; assay: Antitumor activity against human UACC-62 cells assessed as cell growth inhibition at 10 uM incubated for 48 hrs by sulforhodamine B assay; assay type: functional; details: read-out: GI
# [30] = test system: HCT-116; assay: Antitumor activity against human HCT116 cells assessed as cell growth inhibition at 10 uM incubated for 48 hrs by sulforhodamine B assay; assay type: functional; details: read-out: GI
# [31] = test system: MDA-MB-468; assay: Antitumor activity against human MDA-MB-468 cells assessed as cell growth inhibition at 10 uM incubated for 48 hrs by sulforhodamine B assay; assay type: functional; details: read-out: GI
# [32] = test system: MOLT-4; assay: Antitumor activity against human MOLT4 cells assessed as cell growth inhibition at 10 uM incubated for 48 hrs by sulforhodamine B assay; assay type: functional; details: read-out: GI
# [33] = test system: K562; assay: Antitumor activity against human K562 cells assessed as cell growth inhibition at 10 uM incubated for 48 hrs by sulforhodamine B assay; assay type: functional; details: read-out: GI
# [34] = test system: ACHN; assay: Antitumor activity against human ACHN cells assessed as cell growth inhibition at 10 uM incubated for 48 hrs by sulforhodamine B assay; assay type: functional; details: read-out: GI
# [35] = test system: BT-549; assay: Antitumor activity against human BT-549 cells assessed as cell growth inhibition at 10 uM incubated for 48 hrs by sulforhodamine B assay; assay type: functional; details: read-out: GI
# [36] = test system: SR; assay: Antitumor activity against human SR cells assessed as cell growth inhibition at 10 uM incubated for 48 hrs by sulforhodamine B assay; assay type: functional; details: read-out: GI
# [37] = test system: NCI-H460; assay: Antitumor activity against human NCI-H460 assessed as cell growth inhibition at 10 uM incubated for 48 hrs by sulforhodamine B assay; assay type: functional; details: read-out: GI
# [38] = test system: SK-MEL-28; assay: Antitumor activity against human SK-MEL-28 cells assessed as cell growth inhibition at 10 uM incubated for 48 hrs by sulforhodamine B assay; assay type: functional; details: read-out: GI
# [39] = test system: IGROV-1; assay: Antitumor activity against human IGROV1 cells assessed as cell growth inhibition at 10 uM incubated for 48 hrs by sulforhodamine B assay; assay type: functional; details: read-out: GI
# [40] = test system: MDA-MB-435; assay: Antitumor activity against human MDA-MB-435 cells assessed as cell growth inhibition at 10 uM incubated for 48 hrs by sulforhodamine B assay; assay type: functional; details: read-out: GI
# [41] = test system: A498; assay: Antitumor activity against human A498 cells assessed as cell growth inhibition at 10 uM incubated for 48 hrs by sulforhodamine B assay; assay type: functional; details: read-out: GI
# [42] = test system: SNB-75; assay: Antitumor activity against human SNB-75 cells assessed as cell growth inhibition at 10 uM incubated for 48 hrs by sulforhodamine B assay; assay type: functional; details: read-out: GI
# [43] = test system: U-251; assay: Antitumor activity against human U251 cells assessed as cell growth inhibition at 10 uM incubated for 48 hrs by sulforhodamine B assay; assay type: functional; details: read-out: GI
# [44] = test system: OVCAR-3; assay: Antitumor activity against human OVCAR-3 cells assessed as cell growth inhibition at 10 uM incubated for 48 hrs by sulforhodamine B assay; assay type: functional; details: read-out: GI
# [45] = test system: M14; assay: Antitumor activity against human M14 cells assessed as cell growth inhibition at 10 uM incubated for 48 hrs by sulforhodamine B assay; assay type: functional; details: read-out: GI
# [46] = test system: 786-0; assay: Antitumor activity against human 786-0 cells assessed as cell growth inhibition at 10 uM incubated for 48 hrs by sulforhodamine B assay; assay type: functional; details: read-out: GI
# [47] = test system: MCF7; assay: Antitumor activity against human MCF7 cells assessed as cell growth inhibition at 10 uM incubated for 48 hrs by sulforhodamine B assay; assay type: functional; details: read-out: GI
# [48] = test system: LOX IMVI; assay: Antitumor activity against human LOX IMVI cells assessed as cell growth inhibition at 10 uM incubated for 48 hrs by sulforhodamine B assay; assay type: functional; details: read-out: GI
structure (smiles),measurement,setting,value
O=C1c2ccccc2C(=O)c2c1ccc1[nH]c(-c3ccc(-c4nc5c6ccccc6c6ccccc6c5[nH]4)cc3)nc21,inhibition of growth at 10 µM,[1],10.3%
same,inhibition of growth at 10 µM,[2],22.6%
same,inhibition of growth at 10 µM,[3],< 10%
same,inhibition of growth at 10 µM,[4],< 10%
same,inhibition of growth at 10 µM,[5],< 10%
same,inhibition of growth at 10 µM,[6],< 10%
same,inhibition of growth at 10 µM,[7],< 10%
same,inhibition of growth at 10 µM,[8],< 10%
same,inhibition of growth at 10 µM,[9],10.4%
same,inhibition of growth at 10 µM,[10],< 10%
same,inhibition of growth at 10 µM,[11],< 10%
same,inhibition of growth at 10 µM,[12],< 10%
same,inhibition of growth at 10 µM,[13],< 10%
same,inhibition of growth at 10 µM,[14],< 10%
same,inhibition of growth at 10 µM,[15],89%
same,inhibition of growth at 10 µM,[16],< 10%
same,inhibition of growth at 10 µM,[17],< 10%
same,inhibition of growth at 10 µM,[18],< 10%
same,inhibition of growth at 10 µM,[19],< 10%
same,inhibition of growth at 10 µM,[20],< 10%
same,inhibition of growth at 10 µM,[21],< 10%
same,inhibition of growth at 10 µM,[22],< 10%
same,inhibition of growth at 10 µM,[23],< 10%
same,inhibition of growth at 10 µM,[24],< 10%
same,inhibition of growth at 10 µM,[25],< 10%
same,inhibition of growth at 10 µM,[26],14.4%
same,inhibition of growth at 10 µM,[27],< 10%
same,inhibition of growth at 10 µM,[28],< 10%
same,inhibition of growth at 10 µM,[29],< 10%
same,inhibition of growth at 10 µM,[30],< 10%
same,inhibition of growth at 10 µM,[31],< 10%
same,inhibition of growth at 10 µM,[32],12.4%
same,inhibition of growth at 10 µM,[33],< 10%
same,inhibition of growth at 10 µM,[34],< 10%
same,inhibition of growth at 10 µM,[35],< 10%
same,inhibition of growth at 10 µM,[36],11.4%
same,inhibition of growth at 10 µM,[37],< 10%
same,inhibition of growth at 10 µM,[38],< 10%
same,inhibition of growth at 10 µM,[39],< 10%
same,inhibition of growth at 10 µM,[40],< 10%
same,inhibition of growth at 10 µM,[41],< 10%
same,inhibition of growth at 10 µM,[42],10%
same,inhibition of growth at 10 µM,[43],< 10%
same,inhibition of growth at 10 µM,[44],< 10%
same,inhibition of growth at 10 µM,[45],< 10%
same,inhibition of growth at 10 µM,[46],< 10%
same,inhibition of growth at 10 µM,[47],< 10%
same,inhibition of growth at 10 µM,[48],< 10%
